The values that follow come from patent US10118930B2, “Piperidinylpyrazolopyrimidinones and their use” (BAYER PHARMA AKTIENGESELLSCHAFT, priority 2015, dated 2018).

As usually defined, the IC50 is the concentration that inhibits the measured activity by half. Low readings indicate greater potency, high ones weaker potency.

SMILES strings stand for the structures. Where a name gives a salt, the structure may show the parent alone.

The first assay has as its system clot lysis (fibrinolysis) in diluted human citrated plasma, tPA-induced. The assay can be described thus: Plasma-based clot lysis assay (5%). It counts as biochemical. The note with it: human citrated platelet-poor plasma 5%, fibrinogen 3 μM, CaCl2 10 mM, tPA 0.2 nM, 37° C., OD at 405 nm. In outline: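 Clot formation and breakdown triggered by CaCl2 (10 mM final) plus tPA (0.2 nM final) at 37° C, in 5% diluted human plasma supplemented with 3 μM fibrinogen (HEPES/NaCl/Brij buffer, pH 7). IC50 obtained from time courses relative to a blank control.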
`O=c1cc(C2CCNCC2)n2ncc(-c3nc(-c4ccc(OC(F)(F)F)c(Cl)c4)no3)c2[nH]1` [Example 149, 3-{3-[3-Chloro-4-(trifluoromethoxy)phenyl]-1,2,4-oxadiazol-5-yl}-7-(piperidin-4-yl)pyrazolo[1,5-a]pyrimidin-5(4H)-one hydrochloride] gave an IC50 of 100 nM.
On to `CN(Cc1ccccc1)C(=O)c1cnn2c(C3CCNCC3)cc(=O)[nH]c12` [Example 97, N-benzyl-N-methyl-5-oxo-7-(piperidin-4-yl)-4,5-dihydropyrazolo[1,5-a]pyrimidine-3-carboxamide hydrochloride], for which the IC50 is 24 nM.
`O=C(c1cnn2c(C3CCNCC3)cc(=O)[nH]c12)N1CCC(O)CC1` [Example 95, 3-[(4-hydroxypiperidin-1-yl)carbonyl]-7-(piperidin-4-yl)pyrazolo[1,5-a]pyrimidin-5(4H)-one hydrochloride] gave a 50% inhibitory concentration (IC50) of 43 nM.
With `O=c1cc(C2CCNCC2)n2ncc(-c3nc(-c4ccc(C(F)(F)F)nc4)no3)c2[nH]1` [Example 188, 7-(piperidin-4-yl)-3-{3-[6-(trifluoromethyl)pyridin-3-yl]-1,2,4-oxadiazol-5-yl}pyrazolo[1,5-a]pyrimidin-5(4H)-one hydrochloride], the IC50 stood at 35 nM.
For the compound `COC(=O)c1cnn2c(C3CCNCC3)cc(=O)[nH]c12` [Example 357, Methyl 5-oxo-7-(piperidin-4-yl)-4,5-dihydropyrazolo[1,5-a]pyrimidine-3-carboxylate hydrochloride], the IC50 came out at 14 nM.
The compound `Cc1nn2c(C3CCNCC3)cc(=O)[nH]c2c1C(=O)OC(C)C` [Example 366, Propan-2-yl 2-methyl-5-oxo-7-(piperidin-4-yl)-4,5-dihydropyrazolo[1,5-a]pyrimidine-3-carboxylate hydrochloride] gave an IC50 of 27 nM.
On the same count and under the same terms, then `CC(C)(C)C(=O)c1cnn2c(C3CCNCC3)cc(=O)[nH]c12` [Example 456, 3-(2,2-dimethylpropanoyl)-7-(piperidin-4-yl)pyrazolo[1,5-a]pyrimidin-5(4H)-one hydrochloride], with 39 nM; and `O=c1cc(C2CCNCC2)n2ncc(-c3nc(-c4ccccc4)no3)c2[nH]1` [Example 35, 3-(3-Phenyl-1,2,4-oxadiazol-5-yl)-7-(piperidin-4-yl)pyrazolo[1,5-a]pyrimidin-5(4H)-one hydrochloride], with 15 nM; and `Cc1ccc(-c2noc(-c3cnn4c(C5CCNCC5)cc(=O)[nH]c34)n2)cc1Cl` [Example 123, 3-[3-(3-Chloro-4-methylphenyl)-1,2,4-oxadiazol-5-yl]-7-(piperidin-4-yl)pyrazolo[1,5-a]pyrimidin-5(4H)-one hydrochloride], with 47 nM.
Regarding `O=c1cc(C2CCNCC2)n2ncc(-c3nc(-c4cc(Cl)ccc4C(F)(F)F)no3)c2[nH]1` [Example 145, 3-{3-[5-Chloro-2-(trifluoromethyl)phenyl]-1,2,4-oxadiazol-5-yl}-7-(piperidin-4-yl)pyrazolo[1,5-a]pyrimidin-5(4H)-one hydrochloride], the IC50 turned out to be 28 nM.
For the compound `O=C(O)c1cc2[nH]c(=O)cc(C3CCNCC3)n2n1` [Example 46, 5-Oxo-7-(piperidin-4-yl)-4,5-dihydropyrazolo[1,5-a]pyrimidine-2-carboxylic acid hydrochloride], 69 nM corresponded to half-maximal inhibition (IC50).
Still for that read-out and setting: for `O=c1cc(C2CCNCC2)n2ncc(-c3nc(C4CCCCC4)cs3)c2[nH]1` [Example 335, 3-(4-cyclohexyl-1,3-thiazol-2-yl)-7-(piperidin-4-yl)pyrazolo[1,5-a]pyrimidin-5(4H)-one hydrochloride] the value was 9 nM.
Still for that read-out and setting: for `O=c1cc(C2CCNCC2)n2nc3c(c2[nH]1)CCC3` [Example 30, 4-(Piperidin-4-yl)-1,7,8,9-tetrahydro-2H-cyclopenta[3,4]pyrazolo[1,5-a]pyrimidin-2-one hydrochloride] the value was 200 nM; for `O=C(c1cnn2c(C3CCNCC3)cc(=O)[nH]c12)N1CCCCC1` [Example 327, 7-(piperidin-4-yl)-3-(piperidin-1-ylcarbonyl)pyrazolo[1,5-a]pyrimidin-5(4H)-one hydrochloride], 9 nM; for `Cc1nn2c(C3CCNCC3)cc(=O)[nH]c2c1-c1nc(C2CCCCC2)no1` [Example 350, 3-(3-cyclohexyl-1,2,4-oxadiazol-5-yl)-2-methyl-7-(piperidin-4-yl)pyrazolo[1,5-a]pyrimidin-5(4H)-one hydrochloride], 20 nM.
For the compound `CCOC(=O)c1cnn2c(C3CCNCC3)cc(=O)[nH]c12` [Example 16, Ethyl 5-oxo-7-(piperidin-4-yl)-4,5-dihydropyrazolo[1,5-a]pyrimidine-3-carboxylate hydrochloride], 11 nM corresponded to half-maximal inhibition (IC50).
On the same count and under the same terms, for `O=c1cc(C2CCNCC2)n2ncc(-c3nc(-c4cccc(F)c4)no3)c2[nH]1` [Example 112, 3-[3-(3-Fluorophenyl)-1,2,4-oxadiazol-5-yl]-7-(piperidin-4-yl)pyrazolo[1,5-a]pyrimidin-5 (4H)-one hydrochloride] the value was 29 nM; for `CCC(=O)c1cnn2c(C3CCNCC3)cc(=O)[nH]c12` [Example 371, 7-(piperidin-4-yl)-3-propanoylpyrazolo[1,5-a]pyrimidin-5(4H)-one hydrochloride], 30 nM.
As for `CCCN(CC)C(=O)c1c(C)nn2c(C3CCNCC3)cc(=O)[nH]c12` [Example 432, N-ethyl-2-methyl-5-oxo-7-(piperidin-4-yl)-N-propyl-4,5-dihydro-pyrazolo[1,5-a] pyrimidine-3-carboxamide hydrochloride], the IC50 is 120 nM.
Take `CC(C)Oc1ccc(Cc2nc(-c3cnn4c(C5CCNCC5)cc(=O)[nH]c34)no2)cc1` [Example 252, 7-(piperidin-4-yl)-3-{5-[4-(propan-2-yloxy)benzyl]-1,2,4-oxadiazol-3-yl}pyrazolo[1,5-a]pyrimidin-5(4H)-one hydrochloride]: half-maximal inhibition (IC50) was put at 24 nM.
For the compound `O=c1cc(C2CCNCC2)n2ncc(-c3nc(-c4cc(Cl)ccc4F)no3)c2[nH]1` [Example 137, 3-[3-(5-Chloro-2-fluorophenyl)-1,2,4-oxadiazol-5-yl]-7-(piperidin-4-yl)pyrazolo[1,5-a]pyrimidin-5(4H)-one hydrochloride], the 50% inhibitory concentration (IC50) amounted to 31 nM.
On the same count and under the same terms, then `Cc1nn2c(C3CCNCC3)cc(=O)[nH]c2c1C(=O)N(C)C1CCC1` [Example 401, N-cyclobutyl-N,2-dimethyl-5-oxo-7-(piperidin-4-yl)-4,5-dihydro-pyrazolo[1,5-a] pyrimidine-3-carboxamide hydrochloride], with 34 nM; and `Cc1nn2c(C3CCNCC3)cc(=O)[nH]c2c1C(=O)N1CCN2CCCC2C1` (stereo not drawn) [Example 411, 3-(hexahydro-pyrrolo[1,2-a]pyrazin-2(1H)-ylcarbonyl)-2-methyl-7-(piperidin-4-yl) pyrazolo[1,5-a] pyrimidin-5(4H)-one hydrochloride], with 540 nM.
As for `N#Cc1cnn2c(C3CCNCC3)cc(=O)[nH]c12` [Example 15, 5-Oxo-7-(piperidin-4-yl)-4,5-dihydropyrazolo[1,5-a]pyrimidine-3-carbonitrile], the IC50 was 19 nM.
The compound `O=c1cc(C2CCNCC2)n2ncc(-c3nnc(O)o3)c2[nH]1` [Example 286, 3-(5-hydroxy-1,3,4-oxadiazol-2-yl)-7-(piperidin-4-yl)pyrazolo[1,5-a]pyrimidin-5(4H)-one hydrochloride] returned a half-maximal inhibitory concentration (IC50) of 33 nM.
As to `CC(C)CCc1csc(-c2cnn3c(C4CCNCC4)cc(=O)[nH]c23)n1` [Example 304, 3-[4-(3-methylbutyl)-1,3-thiazol-2-yl]-7-(piperidin-4-yl)pyrazolo[1,5-a]pyrimidin-5 (4H)-one hydrochloride], the IC50 was 24 nM.
`NC(=O)c1cnn2c(C3CCNCC3)cc(=O)[nH]c12` [Example 14, 5-Oxo-7-(piperidin-4-yl)-4,5-dihydropyrazolo[1,5-a]pyrimidine-3-carboxamide hydrochloride] came in with an IC50 of 24 nM.
Regarding `Cc1nn2c(C3CCNCC3)cc(=O)[nH]c2c1C(=O)N1CCCC(C)(C)C1` [Example 420, 3-[(3,3-dimethyl-piperidin-1-yl)carbonyl]-2-methyl-7-(piperidin-4-yl) pyrazolo[1,5-a] pyrimidin-5(4H)-one hydrochloride], the IC50 worked out at 47 nM.
`Cc1ccc(F)cc1NC(=O)c1cnn2c(C3CCNCC3)cc(=O)[nH]c12` [Example 76, N-(5-fluoro-2-methylphenyl)-5-oxo-7-(piperidin-4-yl)-4,5-dihydropyrazolo[1,5-a]pyrimidine-3-carboxamide] came in with a half-inhibitory concentration (IC50) of 29 nM.
Still for that read-out and setting: then `O=c1cc(C2CCNCC2)n2ncc(-c3nc(-c4ccc(F)s4)no3)c2[nH]1` [Example 109, 3-[3-(5-fluorothiophen-2-yl)-1,2,4-oxadiazol-5-yl]-7-(piperidin-4-yl)pyrazolo[1,5-a]pyrimidin-5(4H)-one], with 120 nM; and `COc1ccc(-c2noc(-c3cnn4c(C5CCNCC5)cc(=O)[nH]c34)n2)cc1F` [Example 122, 3-[3-(3-Fluoro-4-methoxyphenyl)-1,2,4-oxadiazol-5-yl]-7-(piperidin-4-yl)pyrazolo[1,5-a]pyrimidin-5(4H)-one hydrochloride], with 35 nM; and `Cc1nn2c(C3CCNCC3)cc(=O)[nH]c2c1C(=O)N1CCC2CCCCC2C1` (stereo not drawn) [Example 405, 2-methyl-3-(octahydro-isoquinolin-2(1H)-ylcarbonyl)-7-(piperidin-4-yl) pyrazolo[1,5-a] pyrimidin-5(4H)-one hydrochloride], with 37 nM.

Still in this assay, the particulars now being: human citrated platelet-poor plasma 5%, fibrinogen 3 μM, CaCl2 10 mM, tPA 0.2 nM, 37° C., OD at 405 nm; hydrochloride.
Regarding `CCc1noc(-c2cnn3c(C4CCNCC4)cc(=O)[nH]c23)n1` [Example 199, 3-(3-ethyl-1,2,4-oxadiazol-5-yl)-7-(piperidin-4-yl)pyrazolo[1,5-a]pyrimidin-5(4H)-one hydrochloride], inhibition was half-maximal at 34 nM (IC50).
